Experimental data as given in patent US11084814B2, “Pyrido[3, 4-d]pyrimidine derivative and pharmaceutically acceptable salt thereof” (Teijin Pharma Limited, priority 2016, dated 2021).

Tests used:
CDK2/cyclin A2 = molecular target: T1, CDK2/cyclin A2 (Homo sapiens, UniProt P24941); assay: Human CDK2/cyclin A2 inhibitory activity (QS S Assist CDK2/Cyclin A2_FP Kit, IMAP fluorescent polarization); assay type: biochemical; conditions: read-out: CDK2 Activity symbol
T1 construct: purchased Carna Biosciences, Inc. QS S Assist CDK2/Cyclin A2_FP Kit
Description: Human CDK2/Cyclin A2 Inhibitory Activity
(§1) Each compound was analyzed for CDK2/cyclin A2 inhibitory activity with an assay kit (QS S Assist CDK2/Cyclin A2_FP Kit, available from Carna Biosciences, Inc.). This assay kit determines kinase activity on the basis of the IMAP technology by Molecular Devices. Specifically, the kinase activity is determined through quantification of a variation in fluorescent polarization caused by binding of a kinase-phosphorylated fluorescent substance to an IMAP-binding reagent.
An assay buffer was prepared by 10-fold dilution of the 10× assay buffer attached to the kit with distilled water, and each solution was prepared with the assay buffer. The assay buffer contained 20 mM HEPES (pH 7.4), 0.01% Tween 20, and 2 mM dithiothreitol. A test compound solution was prepared by dilution of the test compound with dimethyl sulfoxide (DMSO) to a concentration 100 times higher than the final concentration and then 25-fold dilution with the assay buffer to a concentration four times higher than the final concentration. An ATP/substrate/Metal solution was prepared by five-fold dilution of the 5×ATP/substrate/Metal solution attached to the kit with the assay buffer. An enzyme solution was prepared by dilution of the CDK2/cyclin A2 attached to the kit with the assay buffer to a concentration twice higher than the final concentration (final concentration of CDK2/cyclin A2: 2.5 ng/well). A detection reagent was prepared by five-fold dilution of 5×IMAP-binding buffer A with distilled water and 400-fold dilution of the IMAP-binding reagent with the diluted buffer.
(§2) The test compound solution (5 μL/well) and the ATP/substrate/Metal solution (5 μL/well) were added to a 384-well plate, and the enzyme solution or the assay buffer (10 μL/well) was added to the plate (total amount of the reaction mixture: 20 μL/well) for initiation of enzymatic reaction. […] The reaction was performed at room temperature for 60 minutes, and the detection reagent (60 μL/well) was then added to the plate, followed by further reaction for 30 minutes at room temperature under light shielding conditions. Subsequently, fluorescent polarization was determined with a microplate reader at an excitation wavelength of 485 nm and an emission wavelength of 535 nm.
The percent inhibition of enzyme activity was calculated for each test compound (note: enzyme activity=100% in the case of addition of the enzyme solution and addition of DMSO instead of the test compound solution, whereas enzyme activity […] in the case of addition of the assay buffer instead of the enzyme solution and addition of DMSO instead of the test compound solution). The percent inhibition of enzyme activity was fitted to a dose-response curve, to determine a 50% inhibitory concentration against CDK2/cyclin A2.
In each table, “+++” corresponds to IC50<10 nM, “++” 10 nM≤IC50<100 nM, and “+” 100 nM≤IC50.

CDK4/cyclin D3 = molecular target: T2, CDK4/cyclin D3 (Homo sapiens, UniProt P11802); assay: Human CDK4/cyclin D3 inhibitory activity (QS S Assist CDK4/Cyclin D3_FP Kit, IMAP fluorescent polarization); assay type: biochemical; conditions: read-out: CDK4 Activity symbol
T2 construct: purchased Carna Biosciences, Inc. QS S Assist CDK4/Cyclin D3_FP Kit
Description: Human CDK4/Cyclin D3 Inhibitory Activity
as §1, with “CDK4/cyclin D3” for “CDK2/cyclin A2”, “CDK4/Cyclin D3_FP” for “CDK2/Cyclin A2_FP”
Each solution was prepared with the 10× assay buffer attached to the kit or a separately prepared assay buffer having the same composition as the assay buffer attached to the kit. An assay buffer was prepared by 10-fold dilution of the 10× assay buffer with distilled water. The assay buffer contains 20 mM HEPES (pH 7.4), 0.01% Tween20, and 2 mM dithiothreitol. A test compound solution was prepared by dilution of the test compound with dimethyl sulfoxide (DMSO) to a concentration 100 times higher than the final concentration and then 25-fold dilution with the assay buffer to a concentration four times higher than the final concentration. An ATP/substrate/Metal solution was prepared by five-fold dilution of the 5×ATP/substrate/Metal solution attached to the kit with the assay buffer. An enzyme solution was prepared by dilution of the CDK4/cyclin D3 attached to the kit with the assay buffer to a concentration twice higher than the final concentration (final concentration of CDK4/cyclin D3: 12.5 to 25 ng/well). A detection reagent was prepared by five-fold dilution of each of 5×IMAP-binding buffer A and 5×IMAP-binding buffer B with distilled water, mixing of IMAP-binding buffer A with IMAP-binding buffer B at a ratio of 85:15, and 400-fold dilution of the IMAP-binding reagent with the mixed buffer.
as §2, with “for 45” for “for 60”
The percent inhibition of enzyme activity was calculated for each test compound (note: enzyme activity=100% in the case of addition of the enzyme solution and addition of DMSO instead of the test compound solution, whereas enzyme activity […] in the case of addition of the assay buffer instead of the enzyme solution, and addition of DMSO instead of the test compound solution). The percent inhibition of enzyme activity was fitted to a dose-response curve, to determine a 50% inhibitory concentration against CDK4/cyclin D3.
In each table, “+++” corresponds to IC50<10 nM. “++” 10 nM […] IC50<100 nM, and “+” 100 nM≤IC50.

T2 sequence (P11802 whole entry): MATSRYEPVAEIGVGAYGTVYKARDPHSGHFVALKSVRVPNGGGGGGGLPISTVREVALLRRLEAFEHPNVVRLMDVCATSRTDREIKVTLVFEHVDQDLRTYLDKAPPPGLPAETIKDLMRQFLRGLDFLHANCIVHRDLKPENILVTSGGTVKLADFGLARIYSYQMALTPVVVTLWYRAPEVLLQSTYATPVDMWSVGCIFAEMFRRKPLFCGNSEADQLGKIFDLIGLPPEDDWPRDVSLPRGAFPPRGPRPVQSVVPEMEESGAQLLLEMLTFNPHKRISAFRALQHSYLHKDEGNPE
T2 sequence (P30281 whole entry partner): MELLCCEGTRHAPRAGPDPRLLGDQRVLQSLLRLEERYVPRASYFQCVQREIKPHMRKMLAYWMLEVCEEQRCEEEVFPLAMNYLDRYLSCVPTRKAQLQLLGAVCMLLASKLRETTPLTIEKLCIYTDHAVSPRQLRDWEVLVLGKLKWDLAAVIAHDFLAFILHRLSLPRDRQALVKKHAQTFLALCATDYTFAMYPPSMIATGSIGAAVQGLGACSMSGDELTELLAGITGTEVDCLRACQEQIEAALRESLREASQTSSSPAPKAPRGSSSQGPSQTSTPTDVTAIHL

| SMILES | IC50 (CDK2/cyclin A2) [nM] | IC50 (CDK4/cyclin D3) [nM] |
| --- | --- | --- |
| Cc1nc(Nc2ncc3cc([C@@H](C)O)nc(N4CCCC4)c3n2)ccc1N1CCNCC1 [Compound 86] | ≥ 100 | < 10 |
| Cc1nc(Nc2ncc3cc([C@@H](C)O)nc(N4CCCCC4)c3n2)ccc1N1CCNCC1 [Compound 87] | ≥ 100 | < 10 |
| Cc1nc(Nc2ncc3cc([C@@H](C)O)nc(N4CCCCC4)c3n2)ccc1N1CCN(CCO)CC1 [Compound 88] | ≥ 100 | < 10 |
| C[C@@H](O)c1cc2cnc(Nc3ccc(N4CCNCCC4=O)cn3)nc2c(N2CCCCC2)n1 [Compound 89] | ≥ 100 | < 10 |
| C[C@@H](O)c1cc2cnc(Nc3ccc(N4CCNCC4=O)cn3)nc2c(N2CCC(F)CC2)n1 [Compound 90] | ≥ 100 | < 10 |
| C[C@@H](O)c1cc2cnc(Nc3ccc(N4CCNCC4)nn3)nc2c(N2CCCCC2)n1 [Compound 91] | ≥ 100 | < 10 |
| OCCc1cc2cnc(Nc3ccc(CN4CCNCC4)cn3)nc2c(N2CCCCC2)n1 [Compound 92] | ≥ 100 | < 10 |
| O=C1CNCCN1c1ccc(Nc2ncc3cc(CCO)nc(N4CCCCC4)c3n2)nc1 [Compound 93] | ≥ 100 | < 10 |
| OCCc1cc2cnc(Nc3ccc(N4CCNCC4)nn3)nc2c(N2CCCCC2)n1 [Compound 94] | ≥ 100 | < 10 |
| OCCc1cc2cnc(Nc3ccc4c(n3)CCNC4)nc2c(N2CCCCC2)n1 [Compound 95] | ≥ 100 | 10 to 100 |
| OCCN1CCN(Cc2ccc(Nc3ncc4cc(CO)nc(N5CCCCC5)c4n3)nc2)CC1 [Compound 96] | ≥ 100 | < 10 |
| O=C1CNCCN1c1ccc(Nc2ncc3cc(CO)nc(N4CCCCC4)c3n2)nc1 [Compound 97] | ≥ 100 | < 10 |
| C[C@@H](O)c1cc2cnc(Nc3ccc(CN4CCN(CCO)CC4)cn3)nc2c(N2CCC[C@@H]2C)n1 [Compound 98] | ≥ 100 | 10 to 100 |
| C[C@H]1CCN(c2nc([C@@H](C)O)cc3cnc(Nc4ccc(CN5CCN(CCO)CC5)cn4)nc23)C1 [Compound 99] | ≥ 100 | < 10 |
| C[C@@H]1CCN(c2nc([C@@H](C)O)cc3cnc(Nc4ccc(CN5CCN(CCO)CC5)cn4)nc23)C1 [Compound 100] | ≥ 100 | < 10 |
| CC1CCC(C)N1c1nc([C@@H](C)O)cc2cnc(Nc3ccc(CN4CCN(CCO)CC4)cn3)nc12 (some centres unmarked) [Compound 101] | ≥ 100 | < 10 |
| C[C@@H](O)c1cc2cnc(Nc3ccc(CN4CCN(CCO)CC4)cn3)nc2c(N2CCC(C)(C)C2)n1 [Compound 102] | ≥ 100 | < 10 |
| C[C@@H](O)c1cc2cnc(Nc3ccc(CN4CCN(CCO)CC4)cn3)nc2c(N2C3CCC2CC3)n1 [Compound 103] | ≥ 100 | < 10 |
| C[C@@H](O)c1cc2cnc(Nc3ccc(CN4CCN(CCO)CC4)cn3)nc2c(N2CC3CC3C2)n1 (some centres unmarked) [Compound 104] | ≥ 100 | < 10 |

| SMILES | IC50 (CDK2/cyclin A2) [nM] | IC50 (CDK4/cyclin D3) [nM] |
| --- | --- | --- |
| CC(O)c1cc2cnc(Nc3ccc(CN4CCN(CCO)CC4)cn3)nc2c(N2C3CCCC2CC3)n1 (centres unmarked) [Compound 105] | ≥ 100 | < 10 |
| C[C@@H](O)c1cc2cnc(Nc3ccc(CN4CCN(CCO)CC4)cn3)nc2c(N2CCC(O)CC2)n1 [Compound 106] | ≥ 100 | < 10 |
| OCc1cc2cnc(Nc3ccc(N4CCNCC4)nn3)nc2c(N2CCCCC2)n1 [Compound 107] | ≥ 100 | < 10 |
| OCc1cc2cnc(Nc3ccc(CN4CCNCC4)cn3)nc2c(N2CCCCC2)n1 [Compound 108] | ≥ 100 | < 10 |
| OCCc1cc2cnc(Nc3ccc4c(n3)CCN(CCO)C4)nc2c(N2CCCCC2)n1 [Compound 109] | ≥ 100 | < 10 |
| CN(C)CCN1CCc2nc(Nc3ncc4cc(CCO)nc(N5CCCCC5)c4n3)ccc2C1 [Compound 110] | ≥ 100 | < 10 |
| C[C@@H](O)c1cc2cnc(Nc3ccc4c(n3)CCN(CCO)C4)nc2c(N2CCCCC2)n1 [Compound 111] | ≥ 100 | < 10 |
| C[C@@H](O)c1cc2cnc(Nc3ccc4c(n3)CCN(CCO)C4)nc2c(N2CCC(F)CC2)n1 [Compound 112] | ≥ 100 | < 10 |
| CC(O)c1cc2cnc(Nc3ccc(CN4CCN(CCO)CC4)cn3)nc2c(N2CC(C)C(C)C2)n1 (centres unmarked) [Compound 113] | ≥ 100 | < 10 |
| C[C@@H](O)c1cc2cnc(Nc3ccc(N4CCN(CCS(C)(=O)=O)CC4)nn3)nc2c(N2CCCCC2)n1 [Compound 114, (R)-1-(2-((6-(4-(2-(methylsulfonyl)ethyl)piperazin-1-yl)pyridazin-3-yl)amino)-8-(piperidin-1-yl)pyrido[3,4-d]pyrimidin-6-yl)ethanol] | ≥ 100 | < 10 |
| C[C@@H](O)c1cc2cnc(Nc3ccc(CN4CCN(C)CC4)cn3)nc2c(N2CCC(F)CC2)n1 [Compound 115] | ≥ 100 | < 10 |
| C[C@@H](O)c1cc2cnc(Nc3ccc(CN4CCN(C)CC4)cn3)nc2c(N2CC[C@@H](F)C2)n1 [Compound 116] | ≥ 100 | < 10 |
| C[C@@H](O)c1cc2cnc(Nc3ccc(CN4CCN(C)CC4)cn3)nc2c(N2CC[C@H](F)C2)n1 [Compound 117] | ≥ 100 | < 10 |
| CO[C@H](C)c1cc2cnc(Nc3ccc(N4CCNCC4)nn3)nc2c(N2CCCCC2)n1 [Compound 118] | ≥ 100 | < 10 |
| CO[C@H](C)c1cc2cnc(Nc3ccc(CN4CCNCC4)cn3)nc2c(N2CCCCC2)n1 [Compound 119] | ≥ 100 | < 10 |
| C[C@@H](O)c1cc2cnc(Nc3ccc(N4CCN(C)CCC4=O)cn3)nc2c(N2CCCC2)n1 [Compound 120] | ≥ 100 | < 10 |
| C[C@@H](O)c1cc2cnc(Nc3ccc(N4CCN(C)CCC4=O)cn3)nc2c(N2CCCCC2)n1 [Compound 121] | ≥ 100 | < 10 |
| CCN1CCN(Cc2ccc(Nc3ncc4cc([C@@H](C)O)nc(N5CCCCC5)c4n3)nc2)CC1 [Compound 122] | ≥ 100 | < 10 |
